Source: PubChem BioAssay (NCI)
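Method: 48-hour compound exposure of cells in 96-well plates, five concentrations, linear interpolation of endpoints. GI50: concentration for 50% inhibition of growth. TGI: total growth inhibition.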

Legend:
Test in all cases: DTP human tumour cell line panel, 48 h
[1] = test system: OVCAR-8 ovarian
[2] = test system: M14 melanoma
[3] = test system: COLO 205 colon
[4] = test system: A498 renal
[5] = test system: NCI-H460 lung
[6] = test system: RPMI-8226 leukemia
[7] = test system: UACC-257 melanoma
[8] = test system: HCC-2998 colon
[9] = test system: HL-60(TB) leukemia
[10] = test system: 786-0 renal
[11] = test system: HS 578T breast
[12] = test system: OVCAR-4 ovarian
[13] = test system: CAKI-1 renal
[14] = test system: SNB-19 CNS
[15] = test system: NCI-H522 lung
[16] = test system: HOP-92 NSCLC
[17] = test system: SK-MEL-28 melanoma
[18] = test system: SF-268 CNS
[19] = test system: MDA-MB-435
[20] = test system: NCI/ADR-RES ovarian
[21] = test system: HCT-15 colon
[22] = test system: MALME-3M melanoma
[23] = test system: HCT-116 colon
[24] = test system: SF-295 CNS
[25] = test system: TK-10 renal
[26] = test system: OVCAR-3 ovarian
[27] = test system: U251 CNS
[28] = test system: RXF 393 renal
[29] = test system: BT-549 breast
[30] = test system: DU-145 prostate
[31] = test system: T-47D breast
[32] = test system: K-562 leukemia
[33] = test system: MOLT-4 leukemia
[34] = test system: SK-OV-3 ovarian
[35] = test system: HOP-62 NSCLC
[36] = test system: PC-3 prostate
[37] = test system: HT29 colon
[38] = test system: NCI-H23 lung
[39] = test system: SK-MEL-2 melanoma
[40] = test system: KM12 colon
[41] = test system: ACHN renal
[42] = test system: NCI-H226 lung
[43] = test system: SW-620 colon
[44] = test system: UO-31 renal
[45] = test system: EKVX NSCLC
[46] = test system: OVCAR-5 ovarian
[47] = test system: SK-MEL-5 melanoma
[48] = test system: SR leukemia
[49] = test system: MDA-MB-231 breast
[50] = test system: MCF7 breast
[51] = test system: SN12C renal
[52] = test system: LOX IMVI melanoma
[53] = test system: A549 NSCLC
[54] = test system: SNB-75 CNS
[55] = test system: SF-539 CNS
[56] = test system: IGROV1 ovarian
[57] = test system: CCRF-CEM leukemia
[58] = test system: UACC-62 melanoma

COC(=O)CCc1c(/C=C2\N=C(c3ccc[nH]3)C=C2OC)[nH]c(C)c1C(=O)OCc1ccccc1
GI50 [1]: 432 nM
TGI [1]: 5750 nM
GI50 [2]: 256 nM
TGI [2]: 784 nM
GI50 [3]: 341 nM
TGI [3]: 2030 nM
GI50 [4]: 289 nM
TGI [4]: 3370 nM
GI50 [5]: 958 nM
TGI [5]: > 61900 nM
GI50 [6]: 343 nM
TGI [6]: 2270 nM
GI50 [7]: 1160 nM
TGI [7]: 5250 nM
GI50 [8]: 404 nM
TGI [8]: 6040 nM
GI50 [9]: 446 nM
TGI [9]: 2420 nM
GI50 [10]: 159 nM
TGI [10]: 1300 nM
GI50 [11]: 491 nM
TGI [11]: 3780 nM
GI50 [12]: 331 nM
TGI [12]: > 100000 nM
GI50 [13]: 272 nM
TGI [13]: 1590 nM
GI50 [14]: 1170 nM
TGI [14]: > 100000 nM
GI50 [15]: 653 nM
TGI [15]: 2880 nM
GI50 [16]: 197 nM
TGI [16]: 730 nM
GI50 [17]: 503 nM
TGI [17]: 2300 nM
GI50 [18]: 514 nM
TGI [18]: 8230 nM
GI50 [19]: 409 nM
TGI [19]: 2250 nM
GI50 [20]: 437 nM
TGI [20]: 3780 nM
GI50 [21]: 177 nM
TGI [21]: 1530 nM
GI50 [22]: 638 nM
TGI [22]: 2120 nM
GI50 [23]: 122 nM
TGI [23]: 1070 nM
GI50 [24]: 384 nM
TGI [24]: 1730 nM
GI50 [25]: 873 nM
TGI [25]: 7050 nM
GI50 [26]: 340 nM
TGI [26]: 1640 nM
GI50 [27]: 360 nM
TGI [27]: 2280 nM
GI50 [28]: 549 nM
TGI [28]: 3380 nM
GI50 [29]: 335 nM
TGI [29]: 2570 nM
GI50 [30]: 345 nM
TGI [30]: > 55600 nM
GI50 [31]: 235 nM
TGI [31]: 1450 nM
GI50 [32]: 252 nM
TGI [32]: 3390 nM
GI50 [33]: 230 nM
TGI [33]: 5100 nM
GI50 [34]: 1670 nM
TGI [34]: 12600 nM
GI50 [35]: 303 nM
TGI [35]: 2000 nM
GI50 [36]: 228 nM
TGI [36]: > 37600 nM
GI50 [37]: 138 nM
TGI [37]: 1680 nM
GI50 [38]: 795 nM
TGI [38]: 4310 nM
GI50 [39]: 304 nM
TGI [39]: 1240 nM
GI50 [40]: 290 nM
TGI [40]: 4980 nM
GI50 [41]: 297 nM
TGI [41]: 1100 nM
GI50 [42]: 532 nM
TGI [42]: 4750 nM
GI50 [43]: 304 nM
TGI [43]: 3030 nM
GI50 [44]: 155 nM
TGI [44]: 359 nM
GI50 [45]: 733 nM
TGI [45]: 5290 nM
GI50 [46]: 684 nM
TGI [46]: 9840 nM
GI50 [47]: 470 nM
TGI [47]: 1750 nM
GI50 [48]: 185 nM
TGI [48]: 1720 nM
GI50 [49]: 170 nM
TGI [49]: 1570 nM
GI50 [50]: 313 nM
TGI [50]: 4780 nM
GI50 [51]: 442 nM
TGI [51]: 2500 nM
GI50 [52]: 169 nM
TGI [52]: 418 nM
GI50 [53]: 945 nM
TGI [53]: 38700 nM
GI50 [54]: 315 nM
TGI [54]: 1800 nM
GI50 [55]: 363 nM
TGI [55]: 1830 nM
GI50 [56]: 355 nM
TGI [56]: 2410 nM
GI50 [57]: 93.3 nM
TGI [57]: > 58000 nM
GI50 [58]: 216 nM
TGI [58]: 491 nM
